The source of these data is US20240252674A1, “AGENTS FOR DIRECTED CONJUGATION TECHNIQUES AND CONJUGATED PRODUCTS” (Biohaven Therapeutics Ltd., priority 2021, published 2024).

One experiment deals with IgG. Briefly: Binding of peptide IgG binder (directing group) to IgG. To be noted: Kd of the directing group included in the peptide IgG binder.
The target in experiment [1] is Immunoglobulin G.
Experiment [2] deals with Immunoglobulin G. The source holds these as a separate data set.

Read-outs that look alike come from different tables or passages of the source. Where no end group is shown, it is not given here.

By Kd is commonly meant the concentration at which binding is half-saturated. On IgG, “DCAWXLGELVWCT peptide [cyclic peptide IgG binder]” showed a Kd of 15 nM.
Molecule “cyclic peptide IgG binder (DCAWXLGELVWCT peptide)” registered a Kd in the experiment with Immunoglobulin G [1] of 15 nM.
In turn, “GSYWYDVWF peptide [linear peptide IgG binder]” yielded a Kd on IgG of 600 nM.

B1: linear peptide IgG binder (… peptide) (peptide)
peptide: GSYWYDVWF
modifications: not fully specified
As for B1, in the experiment with Immunoglobulin G [2], the Kd is 600 nM.
